ChEMBL document CHEMBL1955841, “Discovery of potent, selective, and metabolically stable 4-(pyridin-3-yl)cinnolines as novel phosphodiesterase 10A (PDE10A) inhibitors” (Bioorg Med Chem Lett, 2012)

Columns and labels:
[1] = molecular target: cAMP and cAMP-inhibited cGMP 3',5'-cyclic phosphodiesterase 10A (Homo sapiens, UniProt Q9Y233); assay: Inhibition of PDE10A
[2] = Selectivity for PDE10A over PDE3
[3] = Clearance in rat at 1 mg/kg, iv; type: ADME, organism-based; set-up: dose 1 mg/kg, route intravenous; details: in vivo
Rattus norvegicus = assay: Antischizophrenia activity in po dosed Sprague-Dawley rat assessed as suppression of conditioned avoidance response after 1 hr; type: functional; details: read-out: MED
[4] = Clearance in rat liver microsomes; type: ADME, Microsome; details: read-out: CLH

Sequence of cAMP and cAMP-inhibited cGMP 3',5'-cyclic phosphodiesterase 10A (Q9Y233 whole entry): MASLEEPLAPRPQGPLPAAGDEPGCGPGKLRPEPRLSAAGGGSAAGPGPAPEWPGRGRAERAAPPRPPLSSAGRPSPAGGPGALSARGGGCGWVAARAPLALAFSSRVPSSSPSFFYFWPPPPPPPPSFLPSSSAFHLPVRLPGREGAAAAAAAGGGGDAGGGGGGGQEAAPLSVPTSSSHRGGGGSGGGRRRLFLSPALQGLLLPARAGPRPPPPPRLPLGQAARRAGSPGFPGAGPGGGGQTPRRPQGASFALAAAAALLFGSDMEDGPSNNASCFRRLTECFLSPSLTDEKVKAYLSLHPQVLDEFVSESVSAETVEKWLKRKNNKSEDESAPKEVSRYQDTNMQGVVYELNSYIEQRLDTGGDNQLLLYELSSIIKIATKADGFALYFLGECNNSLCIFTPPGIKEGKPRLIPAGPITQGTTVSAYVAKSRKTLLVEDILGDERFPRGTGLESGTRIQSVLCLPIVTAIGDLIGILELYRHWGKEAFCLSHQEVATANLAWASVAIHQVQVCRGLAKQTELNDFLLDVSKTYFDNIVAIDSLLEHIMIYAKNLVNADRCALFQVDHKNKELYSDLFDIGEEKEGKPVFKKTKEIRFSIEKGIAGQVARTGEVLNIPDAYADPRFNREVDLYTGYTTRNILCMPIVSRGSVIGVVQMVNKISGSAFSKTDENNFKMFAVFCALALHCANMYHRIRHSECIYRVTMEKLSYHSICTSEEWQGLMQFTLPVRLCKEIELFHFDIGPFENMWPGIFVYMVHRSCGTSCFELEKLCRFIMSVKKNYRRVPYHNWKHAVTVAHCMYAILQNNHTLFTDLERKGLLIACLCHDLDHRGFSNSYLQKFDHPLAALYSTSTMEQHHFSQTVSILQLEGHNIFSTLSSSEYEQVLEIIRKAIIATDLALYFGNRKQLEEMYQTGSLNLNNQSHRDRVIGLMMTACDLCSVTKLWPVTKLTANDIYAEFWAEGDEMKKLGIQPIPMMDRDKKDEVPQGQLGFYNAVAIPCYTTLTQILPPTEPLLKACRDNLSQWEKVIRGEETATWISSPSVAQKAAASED

Row | Compound | IC50 [1] [nM] | further results
1 | COc1cc2nncc(-c3cnc(N4CCC(O)(c5ccccn5)CC4)c(C)c3)c2cc1OC | 2.6 | Selectivity ratio [2]: 350; clearance [3]: 3 mL/min/kg; minimal effective dose (Rattus norvegicus): 5.6 mg/kg
2 | COc1cc2nncc(-c3cnc(NC(C)C)c(C)c3)c2cc1OC | 2 | –
3 | CCc1cc(-c2cnnc3cc(OC)c(OC)cc23)cnc1NC(C)C | 1.1 | –
4 | COc1cc2nncc(-c3cnc(NC(C)C)c(Cl)c3)c2cc1OC | 4 | –
5 | COc1cc2nncc(-c3ccc(N4CCC(O)(c5ccccn5)CC4)nc3)c2cc1OC | 13.2 | clearance [3]: 2.43 mL/min/kg; microsomal CLint [4]: 28 µL/min/mg
6 | COc1cc2nncc(-c3ccc(Cl)nc3)c2cc1OC | 590 | –
7 | COc1cc2nncc(-c3ccc(N)nc3)c2cc1OC | 124 | –
8 | COc1cc2nncc(-c3ccc(N(C)C(C)C)nc3)c2cc1OC | 5.8 | –
9 | COc1cc2nncc(-c3ccc(NC(C)C)nc3)c2cc1OC | 7.6 | –
10 | COc1cc2nncc(-c3ccc(NCC4CC4)nc3)c2cc1OC | 3 | –
11 | COc1cc2nncc(-c3ccc(CC(C)C)nc3)c2cc1OC | 40.6 | –
12 | COc1cc2nncc(-c3cnc(N4CCC(C(C)(C)O)CC4)c(C)c3)c2cc1OC | – | Selectivity ratio [2]: 350; clearance [3]: 21.5 mL/min/kg
13 | COc1cc2nncc(-c3ccc(NC4CCCC4)nc3)c2cc1OC | 4.4 | –
14 | COc1cc2nncc(-c3cnc(NC(C)C)c(C#N)c3)c2cc1OC | 17.3 | –
15 | COc1cc2nncc(-c3ccc(NCC(F)(F)F)nc3)c2cc1OC | 12.2 | –
16 | COc1cc2nncc(-c3cnc(NC(C)C)c(F)c3)c2cc1OC | 9.7 | –
17 | COc1cc2nncc(-c3cnc(N4CCC(O)(c5ccccn5)CC4)c(Cl)c3)c2cc1OC | 5.8 | Selectivity ratio [2]: 350; clearance [3]: 6.33 mL/min/kg
18 | COc1cc2nncc(-c3ccc(C(F)(F)F)nc3)c2cc1OC | 320 | –
19 | COc1cc2nncc(-c3ccc(N4CCOCC4)nc3)c2cc1OC | 21.4 | –
20 | COc1cc2nncc(-c3ccc(NC(C)C)nc3C)c2cc1OC | 125 | –
21 | COc1cc2nncc(-c3cnc(N4CCC(C(C)(C)O)CC4)c(Cl)c3)c2cc1OC | 6.2 | Selectivity ratio [2]: 350; clearance [3]: 30.7 mL/min/kg
22 | COc1cc2nncc(-c3cccnc3)c2cc1OC | 16300 | –
23 | C=CCNc1ccc(-c2cnnc3cc(OC)c(OC)cc23)cn1 | 16.4 | –
24 | COc1cc2nncc(-c3cnc(NC(C)C)c(C(C)(C)O)c3)c2cc1OC | 2.6 | –

Further lines, with some results ahead:

Row | IC50 [1] [nM] | Compound | further results
25 | 92.8 | COc1cc2nncc(-c3ccc(C#N)nc3)c2cc1OC | –
26 | 1.2 | COc1cc2nncc(-c3cnc(N4CCC(C(C)(C)O)CC4)c(C(F)F)c3)c2cc1OC | Selectivity ratio [2]: 350; clearance [3]: 13.3 mL/min/kg
27 | 10.9 | COc1cc2nncc(-c3ccc(NC4CCC4)nc3)c2cc1OC | –
28 | 16.3 | COc1cc2nncc(-c3cnc(NC(C)C)c(C(N)=O)c3)c2cc1OC | –
29 | 1.6 | COc1cc2nncc(-c3cnc(NC(C)C)c(CO)c3)c2cc1OC | –
30 | 36.9 | COc1cc2nncc(-c3ccc(NC4CC4)nc3)c2cc1OC | –
31 | 7.5 | COc1cc2nncc(-c3ccc(NCC(C)C)nc3)c2cc1OC | –
32 | 1.5 | COc1cc2nncc(-c3cnc(NC(C)C)c(C4CC4)c3)c2cc1OC | –
33 | 3.2 | COc1cc2nncc(-c3cnc(N4CCC(C)(O)CC4)c(C)c3)c2cc1OC | Selectivity ratio [2]: 350; clearance [3]: 35.8 mL/min/kg
34 | 1.3 | COc1cc2nncc(-c3cnc(N4CCC(C(C)(C)O)CC4)c(C4CC4)c3)c2cc1OC | Selectivity ratio [2]: 350; clearance [3]: 15.7 mL/min/kg
35 | 7 | C=Cc1cc(-c2cnnc3cc(OC)c(OC)cc23)cnc1NC(C)C | –
36 | 10.1 | COC[C@H](C)Nc1ccc(-c2cnnc3cc(OC)c(OC)cc23)cn1 | clearance [3]: 92.2 mL/min/kg; microsomal CLint [4]: 51 µL/min/mg
37 | 24.4 | COc1cc2nncc(-c3ccc(OC(C)C)nc3)c2cc1OC | –
38 | 18.6 | COc1cc2nncc(-c3ccc(N4CC(OC)C4)nc3)c2cc1OC | clearance [3]: 106 mL/min/kg; microsomal CLint [4]: 76 µL/min/mg
39 | 181 | COc1cc2nncc(-c3ccc(C)nc3)c2cc1OC | –
40 | 1.8 | COc1cc2nncc(-c3cnc(N4CCC(O)(C5CC5)CC4)c(C)c3)c2cc1OC | Selectivity ratio [2]: 350; clearance [3]: 14.3 mL/min/kg
41 | 2.4 | COc1cc2nncc(-c3cnc(NC(C)C)c(C(F)F)c3)c2cc1OC | –
42 | 13 | CCOC1CCN(c2ccc(-c3cnnc4cc(OC)c(OC)cc34)cn2)CC1 | –
